The text below walks through data of paper PMC10762177, “Novel betulin derivatives as multidrug reversal agents targeting P-glycoprotein” (Scientific Reports, 2024).

For data set [1], the target named is T1, P-gp (Homo sapiens, UniProt P08183). The data set is described as follows: Rhodamine 123 intracellular accumulation assay in K562/Dox (flow cytometry). The settings on record: for FAR (fluorescence activity ratio): Rho123, K562/Dox. (In general: A flow cytometer gives signals particle by particle.)
The target in data set [2] is T1, P-gp.
Data set [3] addresses T1, P-gp. Nature of the data set: Doxorubicin intracellular accumulation assay in K562/Dox (flow cytometry).
Data set [4] deals with K562 cells. Nature of the data set: Rhodamine 123 intracellular accumulation assay in K562 (flow cytometry).
The test system of data set [5] is K562/Dox cells. Nature of the data set: MTT colorimetric assay, cytotoxicity on resistant K562/Dox. In kind it is cell-based. Particulars: MTT, 48 h, K562/Dox, read-out: IC50 K562/Dox. The protocol:
This colorimetric technique is based on the ability of viable cells to capture MTT and reduce it through the mitochondrial enzyme succinic dehydrogenase to its insoluble form, formazan crystals. The target compounds dissolved in DMSO (0.5% v/v as final concentration which was non-toxic to cells) at a maximum concentration of 50 µM were exposed to 5 × 10^4 cells distributed in a 96-well plate and incubated for 48 h. […] After this time, the plate was centrifuged at 2000 rpm for 10 min, and 100 µL of DMSO was added to dissolve the formazan crystals formed. Absorbance (Abs) was read at a wavelength of 595 nm in an iMark microplate reader (Bio-Rad, USA). The percentages of cytotoxicity were determined as compared to DMSO treated control cells, which were considered 100% viable as showing the same level of growth as the untreated cells.
Background: Formazan colour is commonly taken as a measure of viable cells.

Data set [6] has as its system K562 cells. The data set is described as follows: MTT colorimetric assay, cytotoxicity on sensitive K562. In kind it is cell-based. Particulars: MTT, 48 h, K562. The method, then:
This colorimetric technique is based on the ability of viable cells to capture MTT and reduce it through the mitochondrial enzyme succinic dehydrogenase to its insoluble form, formazan crystals. […] After this time, the plate was centrifuged at 2000 rpm for 10 min, and 100 µL of DMSO was added to dissolve the formazan crystals formed. Absorbance (Abs) was read at a wavelength of 595 nm in an iMark microplate reader (Bio-Rad, USA).

Data set [7] deals with erythrocytes. Nature of the data set: Erythrocyte hemolysis assay. In kind it is cell-based, human. Particulars: maximum tested concentration of 50 µM, 1 h. The method, then:
For the erythrocyte hemolysis assay, the red blood cell suspension was obtained from fresh heparinized blood collected from healthy human volunteer donors, without receiving any treatment. The blood sample was centrifuged at 2,500 rpm for 10 min at 4 °C. The supernatant was discarded, and the red blood cell pellet was subjected to two consecutive washes with sterile PBS, using the same centrifugation conditions. An aliquot of the pellet obtained was resuspended in PBS (3% v/v). The compounds were incubated at decreasing concentrations starting from 50 µM with the suspension at 37 °C for 1 h. Controls with 1% DMSO and no solvent were included.

In data set [8] the test system is K562 cells. The data set is described as follows: Doxorubicin resistance reversal assay in K562 (MTT). In kind it is cell-based. Particulars: K562, 1.56 µM. The protocol: (§1) Simultaneously, viability controls were run with no addition of the dissolution solvent. The cells were incubated at 37 °C at 5% CO2 for 48 h and the same protocol described above was followed. The potency of the compounds was established by means of the fold reversal (FR) values calculated from dividing the IC50 of Dox alone by the IC50 of Dox with different concentrations of each compound tested.

Data set [9] deals with K562/Dox cells. The data set is described as follows: Doxorubicin resistance reversal assay in K562/Dox (MTT). Particulars: K562/Dox; for FR (fold reversal): Dox co-administered. The protocol: as §1
For data set [10], the system named is K562 cells. The data set is described as follows: Doxorubicin intracellular accumulation assay in K562 (flow cytometry). Particulars: K562, versus negative control.
Data set [11] relates to peripheral blood mononuclear cells (PBMC). Nature of the data set: Cytotoxicity on peripheral blood mononuclear cells (MTT). The settings on record: MTT, 48 h, up to 50 µM. In kind it is cell-based, human. The protocol: . PBMC were isolated by the Ficoll-Hypaque density gradient centrifugation technique of fresh heparinized blood from healthy human volunteers. The protocol was previously approved by the Catholic University of Córdoba Research Ethics Board. Signed informed consents were obtained from donors. All methods were performed in accordance with the relevant guidelines and regulations. Briefly, 1 × 10^5 cells/well in a 96-well plate were incubated with 10 µg/mL PHA, in the presence of the corresponding concentrations of the compounds or 0.5% v/v DMSO (negative control) for 48 h, and processed as above described for the MTT method. The percentages of inhibition on cell proliferation were determined by comparison with negative controls, and the corresponding IC50 values were calculated from the best fit of the concentration-dependent inhibition curves in GraphPad Prism 7.

The target in data set [12] is T1, P-gp. Particulars: Rho123 accumulation, K562/Dox; cited from earlier work.
Data set [13] deals with MA-104 cells. Further details: method as in Delou et al. 2009[44]. The settings on record: 22 µM; ref Delou et al. 2009[44]; cited from earlier work.

Entries after “also recorded” stand apart in the source; their conditions may differ. Read-outs that look alike come from different tables or passages of the source.

T1 sequence (P08183 whole entry): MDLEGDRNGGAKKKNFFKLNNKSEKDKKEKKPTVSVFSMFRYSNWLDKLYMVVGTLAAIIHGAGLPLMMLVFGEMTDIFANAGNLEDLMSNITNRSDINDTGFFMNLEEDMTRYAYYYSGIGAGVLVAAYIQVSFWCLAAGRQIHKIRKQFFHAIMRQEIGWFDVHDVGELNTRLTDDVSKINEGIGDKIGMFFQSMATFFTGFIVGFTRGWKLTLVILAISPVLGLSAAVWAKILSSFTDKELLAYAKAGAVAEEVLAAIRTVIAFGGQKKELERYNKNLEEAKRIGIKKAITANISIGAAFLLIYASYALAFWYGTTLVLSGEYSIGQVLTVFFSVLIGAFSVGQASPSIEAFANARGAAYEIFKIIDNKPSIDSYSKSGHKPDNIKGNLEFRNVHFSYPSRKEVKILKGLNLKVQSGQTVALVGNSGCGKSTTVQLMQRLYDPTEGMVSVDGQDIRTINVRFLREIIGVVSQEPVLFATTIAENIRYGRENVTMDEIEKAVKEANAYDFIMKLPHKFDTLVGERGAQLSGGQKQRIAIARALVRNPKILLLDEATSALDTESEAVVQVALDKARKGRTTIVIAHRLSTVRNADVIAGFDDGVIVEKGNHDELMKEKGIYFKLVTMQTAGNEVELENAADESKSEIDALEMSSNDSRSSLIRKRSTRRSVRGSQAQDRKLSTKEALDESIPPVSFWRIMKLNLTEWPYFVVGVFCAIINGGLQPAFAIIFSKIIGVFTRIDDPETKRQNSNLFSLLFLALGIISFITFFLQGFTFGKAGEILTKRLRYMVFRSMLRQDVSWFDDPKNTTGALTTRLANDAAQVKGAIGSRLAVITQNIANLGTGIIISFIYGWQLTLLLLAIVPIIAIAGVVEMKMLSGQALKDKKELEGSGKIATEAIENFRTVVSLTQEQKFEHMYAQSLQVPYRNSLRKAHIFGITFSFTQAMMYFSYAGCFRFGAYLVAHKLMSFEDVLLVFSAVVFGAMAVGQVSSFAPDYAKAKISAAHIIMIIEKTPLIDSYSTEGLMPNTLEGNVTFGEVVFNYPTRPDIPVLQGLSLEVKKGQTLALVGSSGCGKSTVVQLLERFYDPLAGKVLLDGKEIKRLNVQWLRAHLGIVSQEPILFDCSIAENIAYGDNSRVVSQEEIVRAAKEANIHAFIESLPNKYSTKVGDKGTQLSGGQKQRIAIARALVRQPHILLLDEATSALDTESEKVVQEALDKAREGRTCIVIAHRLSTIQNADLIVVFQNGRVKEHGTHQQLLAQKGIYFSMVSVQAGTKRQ

For the compound `COc1cc2c(cc1OC)CN(CCc1ccc(NC(=O)c3cc(OC)c(OC)cc3NC(=O)c3cnc4ccccc4c3)cc1)CC2` [Tariquidar, tariquidar, reference compound], the “FAR (fluorescence activity ratio)” value in [1] (0.78 µM) came out at 1.12 ± 0.03; in data set [2] (1.56 µM) it was 1.22 ± 0.05; in data set [2] (3.12 µM), 1.14 ± 0.03; in data set [4] (Rho123, K562, 3.12 µM), 0.82 ± 0.11. Also, in data set [1] (Rho123 accumulation, K562/Dox), the “MEC (minimum effective concentration)” value is given as 0.78 µM. For the same compound, in data set [3], the “MEC, Dox accumulation” value was found to be 0.39 µM. In addition, the IC50 in data set [5] (Homo sapiens, K562, 48 h) came out at 2200 nM; in data set [5], 2250 ± 280 nM; in data set [6] (Homo sapiens, K562, 48 h), 2400 nM; in [6], 2380 ± 320 nM.
Take `C=C(C)[C@@H]1CC[C@]2(COC(=O)NCCc3cc(OC)c(OC)c(OC)c3)CC[C@]3(C)[C@H](CC[C@@H]4[C@@]5(C)CC[C@H](O)C(C)(C)[C@@H]5CC[C@]43C)[C@@H]12` [Compound 6g]: the “FAR (fluorescence activity ratio)” value in data set [1] (0.098 µM) is recorded as 1.00 ± 0.04; in [1] (0.19 µM) it was 1.09 ± 0.03; in data set [1] (0.78 µM) it was 1.33 ± 0.14; in data set [1] (1.56 µM), 1.61 ± 0.23; in data set [1] (3.12 µM), 2.05 ± 0.36; in data set [1] (6.25 µM), 2.62 ± 0.49. Moreover, the “FAR (fluorescence activity ratio)” value in [1] (25 µM) stood at 3.47 ± 0.61; in [1] (50 µM), 4.02 ± 0.70. Moreover, the “MEC (minimum effective concentration)” value in data set [1] (Rho123 accumulation, K562/Dox) is 0.19 µM. Besides, in data set [1] (Rho123 accumulation, K562/Dox), the “dose-dependent behavior, b” value is 64.49. Further, the “erythrocyte hemolysis” value in [7] is “devoid of toxic effects; also recorded: Neither compound induced erythrocyte hemolysis”. In addition, in data set [8], the “reversal effect on parental K562” value is “slight increase in Dox toxicity”. The “MEC, Dox accumulation” value in data set [3] is 0.098 µM. For the same compound, in data set [3] (50 µM), the “FAR, Dox accumulation” value turned out to be 1.26 ± 0.02. For the same compound, the “MEC, Dox resistance reversal” value in data set [9] is recorded as 0.024 µM. Moreover, the “potency for restoring the cytotoxicity of Dox relative to compound 1 (times)” value in data set [9] was 16. In addition, the “FR (fold reversal)” value in [9] (0.024 µM) was 1.17 ± 0.05; in data set [9] (0.78 µM), 3.98 ± 0.71; in data set [9] (1.56 µM), 5.37 ± 1.36. The “Rho123 accumulation in K562” value in data set [4] (K562, maximum concentration assayed) is “did not increase Rho123 accumulation”. In addition, the IC50 in data set [5] (Homo sapiens, K562, 48 h) was over 50000 nM; in data set [6] (Homo sapiens, K562, 48 h), over 50000 nM. In addition, the “Dox accumulation in K562” value in [10] is given as “did not increase Dox accumulation”. The “cytotoxicity on PBMC” value in data set [11] was “devoid of toxic effects; also recorded: did not reveal cytotoxicity”.
As to `C=C(C)[C@@H]1CC[C@]2(CO)CC[C@]3(C)[C@H](CC[C@@H]4[C@@]5(C)CC[C@H](O)C(C)(C)[C@@H]5CC[C@]43C)[C@@H]12` [Compound 1, betulin], the “FAR (fluorescence activity ratio)” value is recorded as 1.01 ± 0.07 in [1] (0.78 µM); 1.12 ± 0.03 in [1] (1.56 µM); 1.23 ± 0.04 in data set [1] (3.12 µM); 1.32 ± 0.06 in data set [1] (6.25 µM); 1.80 ± 0.08 in data set [1] (12.50 µM); 2.34 ± 0.19 in [1] (25 µM). For the same compound, the “FAR (fluorescence activity ratio)” value in data set [1] (50 µM) worked out at 2.77 ± 0.36. Besides, in data set [12], the “MEC (minimum effective concentration)” value is 1.56 µM. In addition, the “MEC, Dox resistance reversal” value in [9] was 0.39 µM.
Regarding `C=C(C)[C@@H]1CC[C@]2(C(=O)O)CC[C@]3(C)[C@H](CC[C@@H]4[C@@]5(C)CC[C@H](O)C(C)(C)[C@@H]5CC[C@]43C)[C@@H]12` [Compound 2, betulinic acid, reference compound], the “Rho123 accumulation in MA-104 cells” value in [13] was “not to alter Rho123 accumulation”. In [1] (50 µM), the “FAR (fluorescence activity ratio)” value is listed as 1.05 ± 0.04.
